What was measured:
Format in all cases: cell-based, mouse
[1] = test system: α7 integrin (LacZ reporter in α7βgal+/− myoblasts); assay: Myoblast α7+/LacZ integrin FDG assay (Burkin assay in myoblasts, 96-well); details: α7+/LacZ myoblasts, 96-well
[2] = test system: α7 integrin (LacZ reporter in α7+/LacZ myotubes); assay: Myotube α7 integrin FDG assay (Burkin assay in myotubes, 96-well); details: myotubes
[3] = test system: β-galactosidase in CMV-LacZ C2C12 myoblasts; assay: CMV-LacZ secondary screen in C2C12 myoblasts (β-Gal stabilizing assay); details: CMV-LacZ C2C12 myoblasts
Summary of the method: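 Dose-response runs at 0.5–40 μM (0.5, 1, 5, 10, 20, 40 μM; N=2 per point) used a clonal C2C12 line carrying CMV-LacZ. Cells were assayed as myoblasts or as differentiated myotubes, and β-galactosidase levels were read with the FDG fluorogenic substrate.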

[4] = test system: β-galactosidase in CMV-LacZ C2C12 myotubes; assay: CMV-LacZ secondary screen in C2C12 myotubes (β-Gal stabilizing assay); details: C2C12 CMV-LacZ myotubes, fold relative to DMSO
Summary of the method: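 Stable CMV-LacZ C2C12 clone; six-point curve 0.5–40 μM; duplicates.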

## COc1ccc(N2CCN(C(=O)c3cc(C)on3)CC2)cc1 [MLS001124046-01]
[1]; Mus musculus, Myoblast, 48 h, 0.5 uM, read-out: Burkin Assay in Myoblasts, signal relative to DMSO
  fold induction at 0.5 µM: 1.06
[1]; Mus musculus, Myoblast, 48 h, 1 uM, read-out: Burkin Assay in Myoblasts, signal relative to DMSO
  fold induction at 1 µM: 1.16
[1]; Mus musculus, Myoblast, 48 h, 5 uM, read-out: Burkin Assay in Myoblasts, signal relative to DMSO
  fold induction at 5 µM: 1.08
[1]; Mus musculus, Myoblast, 48 h, 10 uM, read-out: Burkin Assay in Myoblasts, signal relative to DMSO
  fold induction at 10 µM: 1.01
[1]; Mus musculus, Myoblast, 48 h, 20 uM, read-out: Burkin Assay in Myoblasts, signal relative to DMSO
  fold induction at 20 µM: 1.1
[1]; Mus musculus, Myoblast, 48 h, 40 uM, read-out: Burkin Assay in Myoblasts, signal relative to DMSO
  fold induction at 40 µM: 1.07
[2]; Mus musculus, Myotube, 0.5 uM, read-out: Burkin Assay in Myotubes, α7 integrin LacZ reporter signal relative to DMSO
  fold induction at 0.5 µM: 1.15
[2]; Mus musculus, Myotube, 1 uM, read-out: Burkin Assay in Myotubes, α7 integrin LacZ reporter signal relative to DMSO
  fold induction at 1 µM: 1.1
[2]; Mus musculus, Myotube, 5 uM, read-out: Burkin Assay in Myotubes, α7 integrin LacZ reporter signal relative to DMSO
  fold induction at 5 µM: 1.42
[2]; Mus musculus, Myotube, 10 uM, read-out: Burkin Assay in Myotubes, α7 integrin LacZ reporter signal relative to DMSO
  fold induction at 10 µM: 1.02
[2]; Mus musculus, Myotube, 20 uM, read-out: Burkin Assay in Myotubes, α7 integrin LacZ reporter signal relative to DMSO
  fold induction at 20 µM: 0.893
[2]; Mus musculus, Myotube, 40 uM, read-out: Burkin Assay in Myotubes, α7 integrin LacZ reporter signal relative to DMSO
  fold induction at 40 µM: 0.92
[3]; 0.5 uM
  CMV-LACZ in Myoblasts (β-galactosidase activity relative to DMSO): 0.8409
[3]; 1 uM
  CMV-LACZ in Myoblasts (β-galactosidase activity relative to DMSO): 1.2650
[3]; 5 uM
  CMV-LACZ in Myoblasts (β-galactosidase activity relative to DMSO): 0.9307
[3]; 10 uM
  CMV-LACZ in Myoblasts (β-galactosidase activity relative to DMSO): 0.8501
[3]; 20 uM
  CMV-LACZ in Myoblasts (β-galactosidase activity relative to DMSO): 0.9881
[3]; 40 uM
  CMV-LACZ in Myoblasts (β-galactosidase activity relative to DMSO): 1.0807
[4]; Mus musculus, C2C12, read-out: CMV-LACZ in Myotubes, signal relative to DMSO, 0.5 uM
  fold induction at 0.5 µM: 1.02
[4]; Mus musculus, C2C12, read-out: CMV-LACZ in Myotubes, signal relative to DMSO, 1 uM
  fold induction at 1 µM: 1.02
[4]; Mus musculus, C2C12, read-out: CMV-LACZ in Myotubes, signal relative to DMSO, 5 uM
  fold induction at 5 µM: 0.84
[4]; Mus musculus, C2C12, read-out: CMV-LACZ in Myotubes, signal relative to DMSO, 10 uM
  fold induction at 10 µM: 1.02
[4]; Mus musculus, C2C12, read-out: CMV-LACZ in Myotubes, signal relative to DMSO, 20 uM
  fold induction at 20 µM: 1.09
[4]; Mus musculus, C2C12, read-out: CMV-LACZ in Myotubes, signal relative to DMSO, 40 uM
  fold induction at 40 µM: 0.981

## O=C(NCCc1ccccc1)C1CCC(=O)N1C1CCCC1 (stereo not drawn) [MLS001200665-01]
[1]; 0.5 uM
  Burkin Assay in Myoblasts, signal relative to DMSO: 0.8982
[1]; 1 uM
  Burkin Assay in Myoblasts, signal relative to DMSO: 0.8539
[1]; 5 uM
  Burkin Assay in Myoblasts, signal relative to DMSO: 1.003
[1]; 10 uM
  Burkin Assay in Myoblasts, signal relative to DMSO: 1.245
[1]; 20 uM
  Burkin Assay in Myoblasts, signal relative to DMSO: 1.143
[1]; 40 uM
  Burkin Assay in Myoblasts, signal relative to DMSO: 1.029
[2]; 0.5 uM
  Burkin Assay in Myotubes, α7 integrin LacZ reporter signal relative to DMSO: 1.031
[2]; 1 uM
  Burkin Assay in Myotubes, α7 integrin LacZ reporter signal relative to DMSO: 0.8461
[2]; 5 uM
  Burkin Assay in Myotubes, α7 integrin LacZ reporter signal relative to DMSO: 1.091
[2]; 10 uM
  Burkin Assay in Myotubes, α7 integrin LacZ reporter signal relative to DMSO: 1.126
[2]; 20 uM
  Burkin Assay in Myotubes, α7 integrin LacZ reporter signal relative to DMSO: 0.8365
[2]; 40 uM
  Burkin Assay in Myotubes, α7 integrin LacZ reporter signal relative to DMSO: 0.8877
[3]; 0.5 uM
  CMV-LACZ in Myoblasts (β-galactosidase activity relative to DMSO): 1.1043
[3]; 1 uM
  CMV-LACZ in Myoblasts (β-galactosidase activity relative to DMSO): 0.9783
[3]; 5 uM
  CMV-LACZ in Myoblasts (β-galactosidase activity relative to DMSO): 0.9398
[3]; 10 uM
  CMV-LACZ in Myoblasts (β-galactosidase activity relative to DMSO): 1.0036
[3]; 20 uM
  CMV-LACZ in Myoblasts (β-galactosidase activity relative to DMSO): 0.7152
[3]; 40 uM
  CMV-LACZ in Myoblasts (β-galactosidase activity relative to DMSO): 0.9937
[4]; 0.5 uM
  CMV-LACZ in Myotubes, signal relative to DMSO: 1.1543
[4]; 1 uM
  CMV-LACZ in Myotubes, signal relative to DMSO: 0.9695
[4]; 5 uM
  CMV-LACZ in Myotubes, signal relative to DMSO: 1.1274
[4]; 10 uM
  CMV-LACZ in Myotubes, signal relative to DMSO: 0.9662
[4]; 20 uM
  CMV-LACZ in Myotubes, signal relative to DMSO: 1.1800
[4]; 40 uM
  CMV-LACZ in Myotubes, signal relative to DMSO: 1.2706

— patent publication US9980943B2, “Methods of treating muscular dystrophy” (BOARD OF REGENTS OF THE NEVADA SYSTEM OF HIGHER EDUCATION, …, priority 2013, dated 2018)
